In patent publication US12303509B2, “Compounds for the treatment of BRAF-associated diseases and disorders” (Pfizer Inc., priority 2020, dated 2025):
Counter-ions that a name gives are not always drawn. Like-named read-outs stand apart in the source and are kept apart here.

Tests used:
P-gp (MDR1) = P-gp (MDR1) (Homo sapiens (Human), UniProt P08183); test: MDR1 LLC-PK1 permeability assay: efflux ratio; type: in vitro ADME; conditions: pig
Text: (§1) Final organic concentration in the assay was 1%.

BCRP = BCRP (Homo sapiens (Human), UniProt Q9UNQ0); test: BCRP MDCKII permeability assay: efflux ratio; type: in vitro ADME; conditions: dog
BCRP, sequence (Q9UNQ0 whole entry): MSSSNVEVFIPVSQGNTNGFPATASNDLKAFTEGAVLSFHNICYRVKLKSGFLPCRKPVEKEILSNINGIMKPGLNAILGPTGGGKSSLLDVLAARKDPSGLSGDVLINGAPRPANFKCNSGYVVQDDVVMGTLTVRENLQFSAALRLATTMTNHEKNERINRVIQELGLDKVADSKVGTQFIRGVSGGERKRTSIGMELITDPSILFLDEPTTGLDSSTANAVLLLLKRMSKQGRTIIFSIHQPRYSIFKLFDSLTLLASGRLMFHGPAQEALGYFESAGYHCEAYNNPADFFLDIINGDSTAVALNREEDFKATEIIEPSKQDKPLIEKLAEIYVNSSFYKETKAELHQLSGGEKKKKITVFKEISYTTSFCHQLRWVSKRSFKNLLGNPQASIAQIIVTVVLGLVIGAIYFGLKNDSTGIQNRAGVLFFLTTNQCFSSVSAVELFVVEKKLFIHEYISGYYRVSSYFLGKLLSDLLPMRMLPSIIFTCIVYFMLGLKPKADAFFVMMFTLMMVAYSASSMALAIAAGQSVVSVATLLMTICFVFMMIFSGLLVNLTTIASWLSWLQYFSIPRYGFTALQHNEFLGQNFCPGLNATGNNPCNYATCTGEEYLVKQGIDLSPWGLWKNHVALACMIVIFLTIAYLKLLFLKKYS

[1] = MDR1 LLC-PK1 and BCRP MDCKII permeability assay: permeability coefficient (Papp); type: in vitro ADME
Text: as §1

[2] = target: full-length FLAG-tagged B-Raf(V600E) (Homo sapiens (Human), UniProt P15056, V600E); test: BRAF V600E enzyme assay (TR-FRET competitive displacement); type: binding
full-length FLAG-tagged B-Raf(V600E), sequence (P15056 whole entry V600E): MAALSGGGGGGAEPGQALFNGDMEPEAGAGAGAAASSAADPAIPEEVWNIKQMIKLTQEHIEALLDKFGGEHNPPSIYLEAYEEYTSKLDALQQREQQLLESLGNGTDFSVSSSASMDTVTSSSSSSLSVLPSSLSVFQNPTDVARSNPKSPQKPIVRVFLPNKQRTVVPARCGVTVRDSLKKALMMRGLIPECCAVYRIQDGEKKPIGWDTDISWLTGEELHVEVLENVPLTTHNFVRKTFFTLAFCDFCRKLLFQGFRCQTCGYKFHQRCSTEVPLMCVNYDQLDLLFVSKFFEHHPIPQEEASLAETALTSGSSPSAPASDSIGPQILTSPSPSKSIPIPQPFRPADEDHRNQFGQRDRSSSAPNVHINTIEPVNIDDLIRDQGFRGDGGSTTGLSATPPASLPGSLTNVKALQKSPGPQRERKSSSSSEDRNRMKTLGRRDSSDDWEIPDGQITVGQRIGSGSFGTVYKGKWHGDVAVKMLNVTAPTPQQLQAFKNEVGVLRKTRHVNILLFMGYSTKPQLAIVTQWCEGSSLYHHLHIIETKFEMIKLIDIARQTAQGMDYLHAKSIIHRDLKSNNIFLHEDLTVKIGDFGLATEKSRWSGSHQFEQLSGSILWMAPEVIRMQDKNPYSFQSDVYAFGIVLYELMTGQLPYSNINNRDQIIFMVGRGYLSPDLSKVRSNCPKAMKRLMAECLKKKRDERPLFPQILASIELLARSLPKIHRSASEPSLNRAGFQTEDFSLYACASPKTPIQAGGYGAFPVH
How it was run: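 Displacement of 50 nM Tracer 1710 from 5 nM full-length N-terminally FLAG-tagged B-Raf(V600E), detected by TR-FRET with 0.5 nM Eu anti-FLAG antibody, in 25 mM HEPES pH 7.4, 10 mM MgCl2, 2% DMSO; 60 min at ~22 °C. Compounds 11-point, 3-fold from 10 μM; IC50 from 4-parameter fit at 50 POC.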

H1755 cells = test: Cellular phospho-ERK inhibition assay in H1755 cells; type: cell-based; conditions: Homo sapiens, NCI-H1755, 2 hours treatment, read-out: H1755 Cell IC50
How it was run: (§2)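 A375 (DMEM) or H1755 (RPMI) cells in 10% FBS treated 2 h at 37 °C with 9-point series, 66 pM–10 μM, 0.25% DMSO. Phospho-ERK1/2 (Thr202/Tyr204) measured by In Cell Western, normalised to GAPDH and to DMSO and 10 μM binimetinib controls; IC50 by 4-parameter fit.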

A375 cells = test: Cellular phospho-ERK inhibition assay in A375 cells; type: cell-based; conditions: Homo sapiens, A-375, A375 cells (head prints A357), 2 hours treatment, read-out: A357 cell IC50
How it was run: as §2

[3] = averaged IC50, TR-FRET tracer displacement, 60 min

P-gp (MDR1), sequence (P08183 whole entry, species assumed): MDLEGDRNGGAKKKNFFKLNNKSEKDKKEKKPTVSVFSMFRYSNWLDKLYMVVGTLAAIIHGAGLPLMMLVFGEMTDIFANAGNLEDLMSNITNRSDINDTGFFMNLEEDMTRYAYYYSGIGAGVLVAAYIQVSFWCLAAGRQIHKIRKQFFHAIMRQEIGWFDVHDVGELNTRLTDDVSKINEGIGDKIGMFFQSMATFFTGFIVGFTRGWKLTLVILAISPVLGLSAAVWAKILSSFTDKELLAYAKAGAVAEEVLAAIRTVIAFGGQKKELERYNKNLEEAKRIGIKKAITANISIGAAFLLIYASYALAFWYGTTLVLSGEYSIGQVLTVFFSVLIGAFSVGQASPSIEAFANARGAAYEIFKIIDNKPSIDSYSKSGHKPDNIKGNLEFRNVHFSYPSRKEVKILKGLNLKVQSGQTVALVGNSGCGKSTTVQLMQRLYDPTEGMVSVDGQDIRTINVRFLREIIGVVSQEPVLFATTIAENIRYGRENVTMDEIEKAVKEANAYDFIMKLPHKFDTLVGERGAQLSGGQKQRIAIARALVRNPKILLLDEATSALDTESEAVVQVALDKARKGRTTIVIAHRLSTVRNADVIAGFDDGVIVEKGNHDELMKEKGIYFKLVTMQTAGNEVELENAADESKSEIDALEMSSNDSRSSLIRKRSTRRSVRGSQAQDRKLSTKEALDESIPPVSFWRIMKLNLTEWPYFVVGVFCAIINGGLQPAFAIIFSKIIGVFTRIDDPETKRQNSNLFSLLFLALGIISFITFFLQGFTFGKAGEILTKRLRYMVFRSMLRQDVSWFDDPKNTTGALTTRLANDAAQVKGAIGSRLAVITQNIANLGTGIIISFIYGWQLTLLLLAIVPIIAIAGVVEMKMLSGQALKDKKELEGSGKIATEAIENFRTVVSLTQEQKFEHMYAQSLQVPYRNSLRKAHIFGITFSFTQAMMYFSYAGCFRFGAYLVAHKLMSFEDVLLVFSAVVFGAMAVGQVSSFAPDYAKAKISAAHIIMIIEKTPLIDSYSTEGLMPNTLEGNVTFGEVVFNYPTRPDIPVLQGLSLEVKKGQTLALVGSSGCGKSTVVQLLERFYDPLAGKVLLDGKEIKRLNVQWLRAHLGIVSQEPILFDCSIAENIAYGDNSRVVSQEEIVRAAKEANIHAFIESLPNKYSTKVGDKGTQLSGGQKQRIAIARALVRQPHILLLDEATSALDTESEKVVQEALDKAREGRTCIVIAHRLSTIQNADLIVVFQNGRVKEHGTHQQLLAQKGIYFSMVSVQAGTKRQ

| efflux ratio at 2 h, 1 µM (P-gp (MDR1)) | efflux ratio at 2 h, 1 µM (BCRP) | Papp at 2 h, 1 µM [1] | IC50 [2, 3] | IC50 (H1755 cells) | IC50 (A375 cells) | IC50 [2] | SMILES |
| --- | --- | --- | --- | --- | --- | --- | --- |
| 1.5 | 2.1 | 31 ×10⁻⁶ cm/s | 2 nM | 163 nM | 21 nM |  | Cc1c(Nc2c(F)c(F)cc(NS(=O)(=O)N3CC[C@@H](F)C3)c2Cl)ccc2ncn(C)c(=O)c12 [Example 35, (R)-N-(2-chloro-3-((3,5-dimethyl-4-oxo-3,4-dihydroquinazolin-6-yl)amino)-4,5-difluorophenyl)-3-fluoropyrrolidine-1-sulfonamide] |
| 2.9 | 9.9 | 25 ×10⁻⁶ cm/s | 1 nM | 61 nM | 5 nM |  | Cn1cnc2ccc(Nc3c(F)c(F)cc(NS(=O)(=O)N4CC[C@@H](F)C4)c3F)c(Cl)c2c1=O [Example 36, (R)-N-(3-((5-chloro-3-methyl-4-oxo-3,4-dihydroquinazolin-6-yl)amino)-2,4,5-trifluorophenyl)-3-fluoropyrrolidine-1-sulfonamide trifluoroacetate] |
| 1.3 | 0.9 | 23 ×10⁻⁶ cm/s | 3 nM | 55 nM | 8 nM |  | Cn1cnc2ccc(Oc3c(F)ccc(NS(=O)(=O)N4CCCC4)c3Cl)c(Cl)c2c1=O [Example 39, N-(2-chloro-3-((5-chloro-3-methyl-4-oxo-3,4-dihydroquinazolin-6-yl)oxy)-4-fluorophenyl)pyrrolidine-1-sulfonamide] |
| 1.8 | 2.4 | 27 ×10⁻⁶ cm/s | 2 nM | 42 nM | 4 nM |  | O=c1c2c(F)c(Nc3c(F)ccc(NS(=O)(=O)N4CCCC4)c3Cl)ccc2ncn1CF [Example 42, N-(2-chloro-4-fluoro-3-((5-fluoro-3-(fluoromethyl)-4-oxo-3,4-dihydroquinazolin-6-yl)amino)phenyl)pyrrolidine-1-sulfonamide trifluoroacetate] |
| 1.8 | 1.9 | 32 ×10⁻⁶ cm/s | 1 nM | 45 nM | 4 nM |  | Cn1cnc2ccc(Nc3c(F)c(F)cc(NS(=O)(=O)N4CCCC4)c3F)c(Cl)c2c1=O [Example 43, N-(3-((5-chloro-3-methyl-4-oxo-3,4-dihydroquinazolin-6-yl)amino)-2,4,5-trifluorophenyl)pyrrolidine-1-sulfonamide trifluoroacetate] |
| 1.6 | 1.6 | 40 ×10⁻⁶ cm/s | 4 nM | 102 nM | 4 nM |  | CCN(C)S(=O)(=O)Nc1cc(F)c(F)c(Nc2ccc3ncn(C)c(=O)c3c2F)c1Cl [Example 45, N-(2-chloro-4,5-difluoro-3-((5-fluoro-3-methyl-4-oxo-3,4-dihydroquinazolin-6-yl)phenyl)-(N-ethyl-N-methyl)-sulfamide trifluoroacetate] |
| 2.8 | 6.3 | 30 ×10⁻⁶ cm/s | 1 nM | 103 nM | 2 nM |  | Cn1cnc2ccc(Nc3c(F)c(F)cc(NS(=O)(=O)N4CC[C@@H](F)C4)c3Cl)c(F)c2c1=O [Example 46, (R)-N-(2-chloro-4,5-difluoro-3-((5-fluoro-3-methyl-4-oxo-3,4-dihydroquinazolin-6-yl)amino)phenyl)-3-fluoropyrrolidine-1-sulfonamide trifluoroacetate] |
| 3.6 | 2.5 | 26 ×10⁻⁶ cm/s | 2 nM | 23 nM | 2 nM |  | CO[C@@H]1CCN(S(=O)(=O)Nc2cc(F)c(F)c(Nc3ccc4ncn(C)c(=O)c4c3F)c2Cl)C1 [Example 47, (R)-N-(2-chloro-4,5-difluoro-3-((5-fluoro-3-methyl-4-oxo-3,4-dihydroquinazolin-6-yl)amino)phenyl)-3-methoxypyrrolidine-1-sulfonamide trifluoroacetate] |
| 1.4 | 1 | 30 ×10⁻⁶ cm/s | 2 nM | 70 nM | 3 nM |  | Cn1cnc2ccc(Oc3c(F)ccc(NS(=O)(=O)N4CC5CC4C5)c3Cl)c(F)c2c1=O [Example 49, N-(2-chloro-4-fluoro-3-((5-fluoro-3-methyl-4-oxo-3,4-dihydroquinazolin-6-yl)oxy)phenyl)-2-azabicyclo[2.1.1]hexane-2-sulfonamide] |
| 5.3 | 6.3 | 26 ×10⁻⁶ cm/s | 2 nM | 20 nM | 1 nM |  | Cn1cnc2ccc(Nc3c(F)ccc(NS(=O)(=O)N4CCCC4)c3Cl)c(C#N)c2c1=O [Example 50, N-(2-chloro-3-((5-cyano-3-methyl-4-oxo-3,4-dihydroquinazolin-6-yl)amino)-4-fluorophenyl)pyrrolidine-1-sulfonamide trifluoroacetate] |
| 2 | 1.8 | 30 ×10⁻⁶ cm/s | 7 nM | 25 nM | 6 nM |  | [2H]C([2H])([2H])O[C@@H]1CCN(S(=O)(=O)Nc2ccc(F)c(Nc3ccc4ncn(C)c(=O)c4c3Cl)c2Cl)C1 [Example 53, (R)-N-(2-chloro-3-((5-chloro-3-methyl-4-oxo-3,4-dihydroquinazolin-6-yl)amino)-4-fluorophenyl)-3-(methoxy-d3)pyrrolidine-1-sulfonamide trifluoroacetate] |
| 3.6 | 3 | 31 ×10⁻⁶ cm/s | 17 nM | 33 nM | 4 nM |  | [2H]C([2H])([2H])O[C@@H]1CCN(S(=O)(=O)Nc2ccc(F)c(Nc3ccc4ncn(C)c(=O)c4c3F)c2Cl)C1 [Example 54, (R)-N-(2-chloro-4-fluoro-3-((5-fluoro-3-methyl-4-oxo-3,4-dihydroquinazolin-6-yl)amino)phenyl)-3-(methoxy-d3)pyrrolidine-1-sulfonamide trifluoroacetate] |
| 1.5 | 1 | 33 ×10⁻⁶ cm/s | 45 nM | 124 nM | 27 nM |  | [2H]C([2H])([2H])O[C@@H]1CCN(S(=O)(=O)Nc2ccc(F)c(Nc3ccc4ncn(C)c(=O)c4c3C)c2Cl)C1 [Example 55, (R)-N-(2-chloro-3-((3,5-dimethyl-4-oxo-3,4-dihydroquinazolin-6-yl)amino)-4-fluorophenyl)-3-(methoxy-d3)pyrrolidine-1-sulfonamide trifluoroacetate] |
| 0.9 | 0.9 | 25 ×10⁻⁶ cm/s |  | 61 nM | 27 nM | 3 nM | Cc1c(Oc2c(F)ccc(NS(=O)(=O)N3CC[C@@H](OC(F)F)C3)c2Cl)ccc2ncn(C)c(=O)c12.O=C(O)C(F)(F)F [Example 57, (R)-N-(2-chloro-3-((3,5-dimethyl-4-oxo-3,4-dihydroquinazolin-6-yl)oxy)-4-fluorophenyl)-3-(difluoromethoxy)pyrrolidine-1-sulfonamide trifluoroacetate] |
